Data on four compounds can be found in patent US11000033B2, “Ketone or oxime compound, and herbicide” (NISSAN CHEMICAL CORPORATION, priority 2014, dated 2021).

What all share (assay type): in vivo
For one data set, the system named is corn. Briefly: Test Example 4: effect on crop by soil treatment (symbol c). The note with it: for c: corn, effect on crop grade: application herbicide amount 320 g/ha; for c: corn, effect grade on crop: 320 g/ha. The method, boiled down: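 Soil-treatment setup: crop and weed seeds were spot-sown into sterilized diluvial soil, then buried beneath approximately 1.5 cm of it, and the boxes were housed in a 25–30° C. greenhouse.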

For data set [1], the system named is Echinochloa crus-galli var. crus-galli. Briefly: Test Example 4: herbicidal effect by soil treatment (symbol H). The procedure, abridged: (§1)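 Seeds were sown in sterilized diluvial soil, covered with about 1.5 cm of soil, and the soil surface was sprayed with a water-diluted emulsion of the compound at a predetermined rate. Plants grew in a greenhouse at 25° C. to 30° C.; effects were scored visually 3 weeks after application.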

A further data set has as its system Galium spurium. Briefly: Test Example 4: herbicidal effect by soil treatment (symbol Q). The method, boiled down: as §1
The subject of the next data set is rice. As to the kind of experiment: Test Example 4: effect on crop by soil treatment (symbol b). The note with it: for b: directly sowed rice plant, effect on crop grade: application herbicide amount 320 g/ha; for b: directly sowed rice plant, effect grade on crop: 320 g/ha. The method, boiled down: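 Plants are raised in a greenhouse (25° C. to 30° C.) from spot-sown seed, which sits under about 1.5 cm of sterilized diluvial soil in a box shared with weed species.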

For a further data set, the system named is Apera spica-venti. Briefly: Test Example 4: herbicidal effect by soil treatment (symbol L). The note with it: application herbicide amount 320 g/ha. The method, boiled down: as §1
In the next data set the test system is wheat. Briefly: Test Example 5: effect on crop by foliage application, plastic box (symbol e). The note with it: 320 g/ha, 3 weeks after application. The method, boiled down: (§2)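 In a plastic box 7 cm deep filled with sterilized diluvial soil, seeds of crops and weeds such as Digitaria ciliaris, Avena fatua and Amaranthus retroflexus are sown in spots and covered with about 1.5 cm of soil before greenhouse growth at 25–30° C.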

The next data set concerns Avena fatua. As to the kind of experiment: Test Example 5: herbicidal effect by foliage application, plastic box (symbol I). The note with it: 320 g/ha, 3 weeks after application. The method, boiled down:
(§3)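 Greenhouse foliar test: seedlings at 14 days, grown 25° C. to 30° C. in sterilized diluvial soil; compound applied as an aqueous dilution of an emulsion; response read 3 weeks after spraying.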

A further data set relates to Alopecurus myosuroides. Briefly: Test Example 5: herbicidal effect by foliage application, plastic box (symbol J). To be noted: 320 g/ha, 3 weeks after application. The method, boiled down:
as §3

The test system of another data set is Scirpus juncoides. As to the kind of experiment: Test Example 2: herbicidal activity, application during weed generation in submerged conditions (symbol B). To be noted: Table 23; application herbicide amount 320 g/ha; grade 0-5 by criteria of Test Example 1. The method, boiled down: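 Submerged alluvial soil (4 cm) sown with mixed seed; greenhouse 25–30° C. 1–2 leaf: diluted emulsion onto water surface, preset dose. Visual score, 3 wk.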

Another data set concerns Cyperus difformis. As to the kind of experiment: Test Example 3: herbicidal effect by foliage application, Wagner pot (symbol E). The note with it: application herbicide amount 320 g/ha. The method, boiled down: (§4)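 Steps: fill pot with alluvial soil; add water to 0.1–0.5 cm depth; sow weed and rice seed; grow 14 days at 25–30 °C; spray diluted emulsion over the leaves; rate effect after 3 weeks.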

The subject of data set [2] is Lolium multiflorum Lam. As to the kind of experiment: Test Example 5: herbicidal effect by foliage application, plastic box (symbol K). The note with it: 320 g/ha, 3 weeks after application. The method, boiled down: as §3
For the next data set, the system named is Setaria viridis. As to the kind of experiment: Test Example 5: herbicidal effect by foliage application, plastic box (symbol G). To be noted: 320 g/ha, 3 weeks after application. The method, boiled down:
as §3

Data set [3] relates to Lolium multiflorum Lam. As to the kind of experiment: Test Example 4: herbicidal effect by soil treatment (symbol K). The method, boiled down:
as §1

A further data set deals with rice plant. As to the kind of experiment: Test Example 5: effect on crop by foliage application, plastic box (symbol b). To be noted: 320 g/ha, 3 weeks after application. The procedure, abridged: as §2
The subject of data set [4] is Echinochloa crus-galli var. crus-galli. Briefly: Test Example 3: herbicidal effect by foliage application, Wagner pot (symbol H). To be noted: application herbicide amount 320 g/ha. The method, boiled down:
as §4

In the next data set the test system is Stellaria media. As to the kind of experiment: Test Example 5: herbicidal effect by foliage application, plastic box (symbol P). The note with it: 320 g/ha, 3 weeks after application. The method, boiled down:
as §3

The next data set has as its system Veronica persica. Briefly: Test Example 5: herbicidal effect by foliage application, plastic box (symbol R). To be noted: 320 g/ha, 3 weeks after application. The method, boiled down: as §3
The mark [5] stands for this setting: application herbicide amount 320 g/ha.

With `CCc1cc(-n2cc(Cl)cn2)cc(C)c1C1=C(O)CC(CC(C)=NOC)C1=O` (mixture of isomers) [6-005], the “c: corn, effect on crop grade” value in the data set on corn was 3 (Herbicidal ratio of 40% or higher and lower than 70%). Also, the “H: Echinochloa crus-galli var. crus-galli, herbicidal effect grade” value in data set [1] (setting [5]) was 5 (Herbicidal ratio of 90% or more (almost completely withered)). Besides, in the data set on Galium spurium (setting [5]), the “Q: Galium spurium, herbicidal effect grade” value (shortened to “Q: Galium spurium”) is recorded as 0 (Herbicidal ratio of 5% or lower (almost no effect)). Besides, the “b: directly sowed rice plant, effect on crop grade” value in the data set on rice and in the data set on rice plant was 5 (Herbicidal ratio of 90% or more (almost completely withered)) each time. Further, the “L: Apera spica-venti, herbicidal effect grade” value in the data set with Apera spica-venti was 5 (Herbicidal ratio of 90% or more (almost completely withered)). For the same compound, the “e: wheat, effect on crop grade” value in the data set with wheat is 4 (Herbicidal ratio of 70% or higher and lower than 90%). Besides, in the data set on Avena fatua, the “I: Avena fatua, herbicidal effect grade” value is recorded as 5 (Herbicidal ratio of 90% or more (almost completely withered)). For the same compound, in the data set with Alopecurus myosuroides, the “J: Alopecurus myosuroides, herbicidal effect grade” value (shortened to “J: Alopecurus myosuroides”) is 5 (Herbicidal ratio of 90% or more (almost completely withered)). For the same compound, the “Herbicidal effect grade, B: Scirpus juncoides” value (shortened to “Herbicidal effect grade, B”) with Scirpus juncoides was 2 (Herbicidal ratio of 20% or higher and lower than 40%). In the data set with Cyperus difformis, the “herbicidal effect on E, grade 0-5” value is 3 (Herbicidal ratio of 40% or higher and lower than 70%). Moreover, the “K: Lolium multiflorum Lam., herbicidal effect grade” value in the data set with Lolium multiflorum Lam. [2] and in the data set on Lolium multiflorum Lam. [3] (setting [5]) was 5 (Herbicidal ratio of 90% or more (almost completely withered)) throughout. The “G: Setaria viridis, herbicidal effect grade” value (from here on “G: Setaria viridis”) with Setaria viridis is 5 (Herbicidal ratio of 90% or more (almost completely withered)). The “herbicidal effect on H (Echinochloa crus-galli var. crus-galli), grade 0-5” value (shortened to “herbicidal effect on H”) in [4] is given as 5 (Herbicidal ratio of 90% or more (almost completely withered)).
For `CON=C(C)CC1CC(OC(=O)c2ccc(S(C)(=O)=O)c(C(=O)OC)c2Cl)=C(c2c(C)cc(C)cc2C)C1=O` (stereo not drawn) [1-162], the “c: corn, effect grade on crop” value in the data set on corn was 2 (Herbicidal ratio of 20% or higher and lower than 40%). Moreover, the “H: Echinochloa crus-galli var. crus-galli, herbicidal effect grade” value in [1] (320 g/ha) is 5 (Herbicidal ratio of 90% or more (almost completely withered)). The “Q: Galium spurium” value in the data set on Galium spurium (320 g/ha) was 0 (Herbicidal ratio of 5% or lower (almost no effect)). Also, the “b: directly sowed rice plant, effect grade on crop” value with rice was 5 (Herbicidal ratio of 90% or more (almost completely withered)). For the same compound, in the data set with Stellaria media, the “P: Stellaria media, herbicidal effect grade” value (shortened to “P: Stellaria media”) was 4 (Herbicidal ratio of 70% or higher and lower than 90%). Further, the “e: wheat, effect on crop grade” value with wheat was 5 (Herbicidal ratio of 90% or more (almost completely withered)). Besides, in the data set on Avena fatua, the “I: Avena fatua, herbicidal effect grade” value is 5 (Herbicidal ratio of 90% or more (almost completely withered)). Besides, in the data set on Alopecurus myosuroides, the “J: Alopecurus myosuroides” value is 5 (Herbicidal ratio of 90% or more (almost completely withered)). Also, the “R: Veronica persica, herbicidal effect grade” value (from here on “R: Veronica persica”) in the data set with Veronica persica is 3 (Herbicidal ratio of 40% or higher and lower than 70%). Also, in the data set on Scirpus juncoides, the “Herbicidal effect grade, B” value is 1 (Herbicidal ratio of 5% or higher and lower than 20%). Also, the “herbicidal effect on E, grade 0-5” value in the data set on Cyperus difformis is recorded as 5 (Herbicidal ratio of 90% or more (almost completely withered)). In addition, the “K: Lolium multiflorum Lam., herbicidal effect grade” value in the data set on Lolium multiflorum Lam. [2] and in the data set with Lolium multiflorum Lam. [3] (320 g/ha) was 5 (Herbicidal ratio of 90% or more (almost completely withered)) in each case. Further, the “G: Setaria viridis” value with Setaria viridis is 5 (Herbicidal ratio of 90% or more (almost completely withered)). In the data set on rice plant, the “b: directly sowed rice plant, effect on crop grade” value is on record as 5 (Herbicidal ratio of 90% or more (almost completely withered)). Besides, the “herbicidal effect on H” value in data set [4] is reported as 5 (Herbicidal ratio of 90% or more (almost completely withered)).
Turning to `CON=C(C)CC1CC(OC(=O)C(C)Oc2ccc(Oc3ccc(Cl)cc3Cl)cc2)=C(c2c(C)cc(C)cc2C)C1=O` (stereo not drawn) [1-163], the “c: corn, effect grade on crop” value with corn is 1 (Herbicidal ratio of 5% or higher and lower than 20%). In addition, in data set [1] (320 g/ha), the “H: Echinochloa crus-galli var. crus-galli, herbicidal effect grade” value was 5 (Herbicidal ratio of 90% or more (almost completely withered)). Moreover, the “Q: Galium spurium” value with Galium spurium (320 g/ha) was 0 (Herbicidal ratio of 5% or lower (almost no effect)). Also, the “b: directly sowed rice plant, effect grade on crop” value in the data set with rice was 5 (Herbicidal ratio of 90% or more (almost completely withered)). In addition, the “P: Stellaria media” value with Stellaria media was 3 (Herbicidal ratio of 40% or higher and lower than 70%). In the data set on wheat, the “e: wheat, effect on crop grade” value is 5 (Herbicidal ratio of 90% or more (almost completely withered)). Besides, in the data set on Avena fatua, the “I: Avena fatua, herbicidal effect grade” value was 5 (Herbicidal ratio of 90% or more (almost completely withered)). In addition, the “J: Alopecurus myosuroides” value in the data set on Alopecurus myosuroides was 5 (Herbicidal ratio of 90% or more (almost completely withered)). Also, the “R: Veronica persica” value in the data set on Veronica persica was 3 (Herbicidal ratio of 40% or higher and lower than 70%). For the same compound, the “Herbicidal effect grade, B” value with Scirpus juncoides was 4 (Herbicidal ratio of 70% or higher and lower than 90%). In the data set with Cyperus difformis, the “herbicidal effect on E, grade 0-5” value is recorded as 5 (Herbicidal ratio of 90% or more (almost completely withered)). Moreover, the “K: Lolium multiflorum Lam., herbicidal effect grade” value in the data set on Lolium multiflorum Lam. [2] and with Lolium multiflorum Lam. [3] (320 g/ha) was 5 (Herbicidal ratio of 90% or more (almost completely withered)) each time. Moreover, in the data set on Setaria viridis, the “G: Setaria viridis” value is 5 (Herbicidal ratio of 90% or more (almost completely withered)). For the same compound, in the data set on rice plant, the “b: directly sowed rice plant, effect on crop grade” value was 5 (Herbicidal ratio of 90% or more (almost completely withered)). The “herbicidal effect on H” value in data set [4] was 5 (Herbicidal ratio of 90% or more (almost completely withered)).
For the compound `Cc1cc(C)c(C2=C(O)CC(CC(=O)c3ccc(F)cc3)C2=O)c(C)c1` (stereo not drawn) [2-032], the “c: corn, effect on crop grade” value with corn was 1 (Herbicidal ratio of 5% or higher and lower than 20%). Besides, the “H: Echinochloa crus-galli var. crus-galli, herbicidal effect grade” value in data set [1] (setting [5]) was 4 (Herbicidal ratio of 70% or higher and lower than 90%). Besides, the “Q: Galium spurium” value in the data set on Galium spurium (setting [5]) is recorded as 0 (Herbicidal ratio of 5% or lower (almost no effect)). Further, the “b: directly sowed rice plant, effect on crop grade” value in the data set on rice and in the data set on rice plant was 5 (Herbicidal ratio of 90% or more (almost completely withered)) in each case. Besides, the “P: Stellaria media” value in the data set on Stellaria media is 0 (Herbicidal ratio of 5% or lower (almost no effect)). Also, the “e: wheat, effect on crop grade” value in the data set with wheat is 1 (Herbicidal ratio of 5% or higher and lower than 20%). Also, in the data set on Avena fatua, the “I: Avena fatua, herbicidal effect grade” value was 3 (Herbicidal ratio of 40% or higher and lower than 70%). Besides, the “J: Alopecurus myosuroides” value in the data set with Alopecurus myosuroides was 4 (Herbicidal ratio of 70% or higher and lower than 90%). Moreover, in the data set on Veronica persica, the “R: Veronica persica” value is reported as 0 (Herbicidal ratio of 5% or lower (almost no effect)). Besides, in the data set with Scirpus juncoides, the “Herbicidal effect grade, B” value was 1 (Herbicidal ratio of 5% or higher and lower than 20%). In addition, the “herbicidal effect on E, grade 0-5” value in the data set with Cyperus difformis was 4 (Herbicidal ratio of 70% or higher and lower than 90%). Further, the “K: Lolium multiflorum Lam., herbicidal effect grade” value in the data set with Lolium multiflorum Lam. [2] and in the data set on Lolium multiflorum Lam. [3] (setting [5]) was 5 (Herbicidal ratio of 90% or more (almost completely withered)) in each case. Further, the “G: Setaria viridis” value with Setaria viridis is listed as 5 (Herbicidal ratio of 90% or more (almost completely withered)). The “herbicidal effect on H” value in data set [4] is on record as 5 (Herbicidal ratio of 90% or more (almost completely withered)).
